Laboratory results taken from US20240308960A1 (Sumitomo Pharma Co., Ltd., priority 2021, published 2024).

Target: T1, Human orexin receptor type 2 (Homo sapiens, UniProt O43614)
T1 sequence (O43614 1-444): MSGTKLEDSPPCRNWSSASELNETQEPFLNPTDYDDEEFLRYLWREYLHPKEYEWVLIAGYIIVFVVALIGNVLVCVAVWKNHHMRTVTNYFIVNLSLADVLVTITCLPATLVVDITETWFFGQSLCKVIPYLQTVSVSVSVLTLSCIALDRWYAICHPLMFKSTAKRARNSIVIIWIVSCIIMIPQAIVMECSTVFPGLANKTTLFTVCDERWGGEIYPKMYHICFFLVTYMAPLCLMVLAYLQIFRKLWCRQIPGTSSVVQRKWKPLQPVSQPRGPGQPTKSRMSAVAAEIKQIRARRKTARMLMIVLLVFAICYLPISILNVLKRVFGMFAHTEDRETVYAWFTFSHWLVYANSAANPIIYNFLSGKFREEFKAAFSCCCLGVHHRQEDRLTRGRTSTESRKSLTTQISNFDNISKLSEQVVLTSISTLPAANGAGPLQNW
Test: Test Example 1: agonist activity for orexin receptor type 2 (aequorin luminescence, intracellular calcium mobilization)
Conditions: compound 10 μm; CHO cells transiently expressing human orexin receptor type 2 and apoaequorin; relative percentage of luminescence for the luminescence (100%) of Orexin A (100 μM)

| Structure (SMILES) | Agonist Activity (%) |
| --- | --- |
| CC(C)N1CCN(c2cccc(F)c2NC(=O)N2C3CCC2CC(c2nc(C4CC4)no2)C3)CC1 (centres unmarked) [Example 32, 3-(3-cyclopropyl-1,2,4-oxadiazol-5-yl)-N-{2-fluoro-6-[4-(propan-2-yl)piperazin-1-yl]phenyl}-8-azabicyclo[3.2.1]octane-8-carboxamide] | 30% |
| CCC1(c2noc(C3CC3)n2)CCN(C(=O)Nc2c(Cl)cccc2N2CCN(C(C)C)CC2)CC1 [Example 89, N-{2-chloro-6-[4-(propan-2-yl)piperazin-1-yl]phenyl}-4-(5-cyclopropyl-1,2,4-oxadiazol-3-yl)-4-ethylpiperidine-1-carboxamide] | 152% |
| Cc1noc(C2(F)CCN(C(=O)Nc3ccccc3N3CCN(C(C)C)CC3)CC2)n1 [Example 164, 4-fluoro-4-(3-methl-1,2,4-oxadiazol-5-yl)-N-{2-[4-(propan-2-yl)piperazin-1-yl]phenyl}piperidine-1-carboxamide] | 128% |
| Cc1noc(C2(C)CCN(C(=O)Nc3ccccc3N3CCN(C(C)C)CC3)CC2)n1 [Example 162, 4-Methyl-4-(3-methyl-1,2,4-oxadiazol-5-yl)-N-{2-[4-(propan-2-yl)piperazin-1-yl]phenyl}piperidine-1-carboxamide] | 100% |
| Cc1ccc(C2CCN(C(=O)Nc3ccccc3N3CCN(C(C)C)CC3)CC2)c(F)c1 [Example 18, 4-(2-fluoro-4-methylphenyl)-N-{2-[4-(propan-2-yl)piperazin-1-yl]phenyl}piperidine-1-carboxamide] | 128% |
| CCc1nc(C2(F)CCN(C(=O)Nc3c(Cl)cccc3N3CCN(C(C)C)CC3)CC2)no1 [Example 95, N-{2-chloro-6-[4-(propan-2-yl)piperazin-1-yl]phenyl}-4-(5-ethyl-1,2,4-oxadiazol-3-yl)-4-fluoropiperidine-1-carboxamide] | 178% |
| CC(C)N1CCN(c2cccc(F)c2NC(=O)N2CCC(c3cc(C4CC4)on3)CC2)CC1 [Example 52, 4-(5-cyclopropyl-1,2-oxazol-3-yl)-N-{2-fluoro-6-[4-(propan-2-yl)piperazin-1-yl]phenyl}piperidine-1-carboxamide] | 155% |
| Cc1onc(C2(C)CCN(C(=O)Nc3c(Cl)cccc3N3CCN(C(C)C)CC3)CC2)c1Cl [Example 90, 4-(4-chloro-5-methyl-1,2-oxazol-3-yl)-N-{2-chloro-6-[4-(propan-2-yl)piperazin-1-yl]phenyl}-4-methylpiperidine-1-carboxamide] | 164% |
| Cc1ccc(C2CCN(C(=O)Nc3c(Cl)cccc3C3=CCN(C(C)C)CC3)CC2)cc1 [Example 132, N-{2-chloro-6-[1-(propan-2-yl)-1,2,3,6-tetrahydropyridin-4-yl]phenyl}-4-(4-methylphenyl)piperidine-1-carboxamide] | 171% |
| CC(C)c1ccc(-c2cccc(F)c2NC(=O)N2CCC(C)(c3noc(C4CC4)n3)CC2)cn1 [Example 60, 4-(5-cyclopropyl-1,2,4-oxadiazol-3-yl)-N-{2-fluoro-6-[6-(propan-2-yl)pyridin-3-yl]phenyl}-4-methylpiperidine-1-carboxamide] | 102% |
| Cc1ccc(C2CCN(C(=O)Nc3ccccc3[C@@H]3CN[C@@H](C(C)C)CO3)CC2)cc1 [Example 166, 4-(4-Methylphenyl)-N-{2-[(2R,5S)-5-(propan-2-yl)morpholin-2-yl]phenyl}piperidine-1-carboxamide] | 72% |
| CC(C)N1CCN(c2cccc(Cl)c2NC(=O)N2CCC(C)(c3noc(C4CCC4)n3)CC2)CC1 [Example 78, N-{2-chloro-6-[4-(propan-2-yl)piperazin-1-yl]phenyl}-4-(5-cyclobutyl-1,2,4-oxadiazol-3-yl)-4-methylpiperidine-1-carboxamide] | 170% |
| CC(C)N1CCN(c2cccc(Cl)c2NC(=O)N2CCC(C)(c3csc(C4CC4)n3)CC2)CC1 [Example 96, N-{2-chloro-6-[4-(propan-2-yl)piperazin-1-yl]phenyl}-4-(2-cyclopropyl-1,3-thiazol-4-yl)-4-methylpiperidine-1-carboxamide] | 160% |
| Cc1nnc(C2(C)CCN(C(=O)Nc3ccccc3N3CCN(C(C)C)CC3)CC2)o1 [Example 165, 4-Methyl-4-(5-methyl-1,3,4-oxadiazol-2-yl)-N-{2-[4-(propan-2-yl)piperazin-1-yl]phenyl}piperidine-1-carboxamide] | 96% |
| CC(CF)N1CCC(c2cccc(Cl)c2NC(=O)N2CCC(C)(c3noc(C4CC4)n3)CC2)CC1 (centres unmarked) [Example 143, N-{2-chloro-6-[1-(1-fluoropropan-2-yl)piperidin-4-yl]phenyl}-4-(5-cyclopropyl-1,2,4-oxadiazol-3-yl)-4-methylpiperidine-1-carboxamide] | 109% |
| CC(C)N1CCN(c2ccccc2NC(=O)N2CCC(C)(c3ccccc3)CC2)CC1 [Example 5, 4-methyl-4-phenyl-N-{2-[4-(propan-2-yl)piperazin-1-yl]phenyl}piperidine-1-carboxamide] | 156% |
| CC(C)N1CCN(c2cccc(F)c2NC(=O)N2CCC(C)(c3noc(C4(C)CC4)n3)CC2)CC1 [Example 79, N-{2-fluoro-6-[4-(propan-2-yl)piperazin-1-yl]phenyl}-4-methyl-4-[5-(1-methylcyclopropyl)-1,2,4-oxadiazol-3-yl]piperidine-1-carboxamide] | 156% |
| COc1cccc(N2CCN(C(C)C)CC2)c1NC(=O)N1CCC(C)(c2noc(C(F)(F)F)n2)CC1 [Example 25, N-{2-methoxy-6-[4-(propan-2-yl)piperazin-1-yl]phenyl}-4-methyl-4-[5-(trifluoromethyl)-1,2,4-oxadiazol-3-yl]piperidine-1-carboxamide] | 136% |
| CC(C)N1CC=C(c2cccc(Cl)c2NC(=O)N2CCC(C)(c3cc(C4CC4)on3)CC2)CC1 [Example 144, N-{2-chloro-6-[1-(propan-2-yl)-1,2,3,6-tetrahydropyridin-4-yl]phenyl}-4-(5-cyclopropyl-1,2-oxazol-3-yl)-4-methylpiperidine-1-carboxamide] | 143% |
| CC(C)N1CCN(c2cccc(Cl)c2NC(=O)N2CCC(C)(c3noc(CC(F)(F)F)n3)CC2)CC1 [Example 119, N-{2-chloro-6-[4-(propan-2-yl)piperazin-1-yl]phenyl}-4-methyl-4-[5-(2,2,2-trifluoroethyl)-1,2,4-oxadiazol-3-yl]piperidine-1-carboxamide] | 154% |
| Cc1ccc(C2CCN(C(=O)Nc3c(F)cccc3N3CCN(C(C)C)CC3)CC2C)cc1 (racemic) [Example 26, Rac-N-{2-fluoro-6-[4-(propan-2-yl)piperazin-1-yl]phenyl}-3-methyl-4-(4-methylphenyl)piperidine-1-carboxamide] | 63% |
| Cc1ccccc1C1CCN(C(=O)Nc2c(F)cccc2N2CCN(C(C)C)CC2)CC1 [Example 37, N-{2-fluoro-6-[4-(propan-2-yl)piperazin-1-yl]phenyl}-4-(2-methylphenyl)piperidine-1-carboxamide] | 47% |
| Cc1ccc(C2CCN(C(=O)Nc3c(F)cccc3N3CCN(C(C)C)CC3)CC2)nc1 [Example 46, N-{2-fluoro-6-[4-(propan-2-yl)piperazin-1-yl]phenyl}-4-(5-methylpyridin-2-yl)piperidine-1-carboxamide] | 49% |
| Cc1ccc(C2CCN(C(=O)Nc3c(F)cccc3C3CCN(C(C)C)CC3)CC2)cc1 [Example 39, N-{2-fluoro-6-[1-(propan-2-yl)piperidin-4-yl]phenyl}-4-(4-methylphenyl)piperidine-1-carboxamide] | 106% |
| CC1(c2noc(C3CC3)n2)CCN(C(=O)Nc2c(Cl)cccc2C2CCN(C3COC3)CC2)CC1 [Example 146, N-{2-chloro-6-[1-(oxetan-3-yl)piperidin-4-yl]phenyl}-4-(5-cyclopropyl-1,2,4-oxadiazol-3-yl)-4-methylpiperidine-1-carboxamide] | 104% |
| CC(C)N1CC=C(c2cccc(Cl)c2NC(=O)N2CCC(C)(C#N)CC2)CC1 [Example 158, N-{2-chloro-6-[1-(propan-2-yl)-1,2,3,6-tetrahydropyridin-4-yl]phenyl}-4-cyano-4-methylpiperidine-1-carboxamide] | 133% |
| Cc1ccc(C2CCN(C(=O)Nc3c(C)cccc3N3CCN(C(C)C)CC3)CC2)cc1 [Example 17, 4-(4-methylphenyl)-N-{2-methyl-6-[4-(propan-2-yl)piperazin-1-yl]phenyl}piperidine-1-carboxamide] | 133% |
| Cc1ccc(C2CCN(C(=O)Nc3c(F)cccc3C3=CCN(C)C3)CC2)cc1 [Example 140, N-[2-fluoro-6-(1-methyl-2,5-dihydro-1H-pyrrol-3-yl)phenyl]-4-(4-methylphenyl)piperidine-1-carboxamide] | 75% |
| CC(CF)N1CC=C(c2cccc(Cl)c2NC(=O)N2CCC(C)(c3cc(C4CC4)on3)CC2)CC1 (centres unmarked) [Example 141, N-{2-chloro-6-[1-(1-fluoropropan-2-yl)-1,2,3,6-tetrahydropyridin-4-yl]phenyl}-4-(5-cyclopropyl-1,2-oxazol-3-yl)-4-methylpiperidine-1-carboxamide] | 121% |
